Source: patent US9873690B2, “3-indol substituted derivatives, pharmaceutical compositions and methods for use” (Pfizer Inc., priority 2015, dated 2018)

Target: T1, hTDO2 (Homo sapiens, UniProt P48775)
T1 construct: endogenous in cells; host or cells: A172 human brain glioblastoma cells (ATCC CRL-1620)
Assay: Cellular assay for TDO2 activity determination in A172 cells
Assay type: cell-based
Conditions: human glioblastoma A172 cells naturally expressing hTDO2; overnight incubation; kynurenine by absorbance at 480 nm
Protocol: The compounds of formula I inhibit the activity of human TDO2 in cells that constitutively express TDO2, such as A172 cells. A172 is a cell line derived from human brain glioblastoma cells. The cells are available from the American Type Culture Collection (ATCC®) as CRL-1620™.
The assay (adapted from Pilotte L et al., Proc Natl Acad Sci USA, 2012, 109(7), 2497-502) was performed in 96-well flat bottom plates seeded with human glioblastoma A172 cells, naturally expressing hTDO2 (prepared as described in Tilman et al., Mol Cancer, 2007, 17(6), 80), at a concentration of 1.25×10^4 cells/well in a final volume of 200 μL. To determine TDO, the cells were incubated overnight at 37° C. at 5% CO2 in IMDM (Invitrogen) supplemented with 2% FBS and 2% penicillin/streptomycin in the presence of the compounds of the present invention, at different concentrations.
The plates were then centrifuged 5 min at 1000 rpm, and 100 μL of the supernatant were collected in a conical plate, 30 μL of TCA 30% were added and a further centrifuged at 3000×g for 10 minutes. 100 μL of the supernatant were collected in a flat bottomed plate and 100 μL of 2% (w/v) 4-(dimethylamino)-benzaldehyde in acetic acid and incubated for 5 min at room temperature. Kynurenine concentrations were determined by measuring the absorbance at 480 nm. A standard curve was made with pure kynurenine. The TDO activity was measured as described above using ten serial concentrations of the compounds of the present invention. Data were fitted using the Prism™ software (GraphPad Software, Inc.) using standard parameters.
The biological activity of representative compounds in human brain glioblastoma cells as determined in the above-referenced assay is summarized in the following table: […]

T1 sequence (P48775 whole entry): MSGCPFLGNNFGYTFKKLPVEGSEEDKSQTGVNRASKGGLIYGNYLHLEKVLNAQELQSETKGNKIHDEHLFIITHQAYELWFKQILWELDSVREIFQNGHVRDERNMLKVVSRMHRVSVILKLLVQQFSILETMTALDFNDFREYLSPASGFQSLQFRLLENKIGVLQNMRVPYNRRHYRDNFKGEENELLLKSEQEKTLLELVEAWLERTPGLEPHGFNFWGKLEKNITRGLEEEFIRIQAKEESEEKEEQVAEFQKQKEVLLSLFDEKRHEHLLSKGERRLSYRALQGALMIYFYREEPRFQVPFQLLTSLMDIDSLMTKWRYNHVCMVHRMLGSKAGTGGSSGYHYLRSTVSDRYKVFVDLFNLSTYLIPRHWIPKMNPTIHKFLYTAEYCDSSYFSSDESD

Row | Compound | IC50 [nM]
1 | COC(=O)C1NS(=O)(=O)c2ccc(-c3c[nH]c4cc(F)ccc34)cc21 (racemic) [Example 14, methyl 5-(6-fluoro-1H-indol-3-yl)-2,3-dihydrobenzo-[d]isothiazole-3-carboxylate 1,1-dioxide] | 8090
2 | C[C@H]1NS(=O)(=O)c2ccc(-c3c[nH]c4cc(F)ccc34)cc21 (single isomer, unassigned) [Example 1, (+)-5-(6-fluoro-1H-indol-3-yl)-3-methyl-2,3-dihydro-1,2-benzothiazole 1,1-dioxide] | 27
3 | C[C@@H]1NS(=O)(=O)c2ccc(-c3c[nH]c4cc(F)ccc34)cc21 (single isomer, unassigned) [Example 2, (−)-5-(6-fluoro-1H-indol-3-yl)-3-methyl-2,3-dihydro-1,2-benzothiazole 1,1-dioxide] | 110
4 | CC1c2cc(-c3c[nH]c4cc(F)ccc34)ccc2S(=O)(=O)N1CC1(C)COC(=O)N1 (single isomer, unassigned) [Example 87] | 313
5 | CC1c2cc(-c3c[nH]c4cc(F)ccc34)ccc2S(=O)(=O)N1C[C@@H](O)CO (single isomer, unassigned) [Example 93] | 269
6 | CC1c2cc(-c3c[nH]c4cc(F)ccc34)ccc2S(=O)(=O)N1C[C@H](O)CO (single isomer, unassigned) [Example 95] | 114
7 | CNC(=O)C(N)CN1C(C)c2cc(-c3c[nH]c4cc(F)ccc34)ccc2S1(=O)=O (single isomer, unassigned) [Example 101] | 366
8 | CNCC1NS(=O)(=O)c2ccc(-c3c[nH]c4cc(F)ccc34)cc21 (single isomer, unassigned) [Example 137, 5-(6-fluoro-1H-indol-3-yl)-3-((methylamino)methyl)-2,3-dihydrobenzo[d]isothiazole 1,1-dioxide] | 66
9 | CNC(=O)C(C)N1C(C)c2cc(-c3c[nH]c4cc(F)ccc34)ccc2S1(=O)=O (single isomer, unassigned) [Example 147, 2-(5-(6-fluoro-1H-indol-3-yl)-3-methyl-1,1-dioxidobenzo[d]isothiazol-2(3H)-yl)-N-methylpropanamide] | 59
10 | CCC1NS(=O)(=O)c2ccc(-c3c[nH]c4cc(F)ccc34)cc21 (single isomer, unassigned; (+)) [Example 3, (+)-3-ethyl-5-(6-fluoro-1H-indol-3-yl)-2,3-dihydrobenzo[d]-isothiazole 1,1-dioxide] | 64
11 | CCCC1NS(=O)(=O)c2ccc(-c3c[nH]c4cc(F)ccc34)cc21 (single isomer, unassigned; (+)) [Example 6, (+)-5-(6-fluoro-1H-indol-3-yl)-3-propyl-2,3-dihydrobenzo[d]isothiazole 1,1-dioxide] | 367
12 | CC(C)C1NS(=O)(=O)c2ccc(-c3c[nH]c4cc(F)ccc34)cc21 (single isomer, unassigned; (+)) [Example 8, (+)-5-(6-fluoro-1H-indol-3-yl)-3-isopropyl-2,3-dihydrobenzo[d]isothiazole 1,1-dioxide] | 47
13 | O=S1(=O)NC(C2CC2)c2cc(-c3c[nH]c4cc(F)ccc34)ccc21 (single isomer, unassigned; (+)) [Example 10, (+)-3-cyclopropyl-5-(6-fluoro-1H-indol-3-yl)-2,3-dihydrobenzo[d]isothiazole 1,1-dioxide] | 240
14 | O=S1(=O)NC(CO)c2cc(-c3c[nH]c4cc(F)ccc34)ccc21 (single isomer, unassigned; (+)) [Example 13, (+)-5-(6-fluoro-1H-indol-3-yl)-3-(hydroxymethyl)-2,3-dihydrobenzo[d]isothiazole 1,1-dioxide] | 43
15 | NC(=O)C1NS(=O)(=O)c2ccc(-c3c[nH]c4cc(F)ccc34)cc21 (single isomer, unassigned; (+)) [Example 16, (+)-5-(6-fluoro-1H-indol-3-yl)-2,3-dihydrobenzo[d]-isothiazole-3-carboxamide 1,1-dioxide] | 1380
16 | CNC(=O)C1NS(=O)(=O)c2ccc(-c3c[nH]c4cc(F)ccc34)cc21 (single isomer, unassigned; (+)) [Example 18, (+)-5-(6-fluoro-1H-indol-3-yl)-N-methyl-2,3-dihydrobenzo[d]isothiazole-3-carboxamide 1,1-dioxide] | 5000
17 | NCC1NS(=O)(=O)c2ccc(-c3c[nH]c4cc(F)ccc34)cc21 (single isomer, unassigned; (+)) [Example 19, (+)-3-(aminomethyl)-5-(6-fluoro-1H-indol-3-yl)-2,3-dihydrobenzo[d]isothiazole 1,1-dioxide] | 311
18 | COC(=O)NCC1NS(=O)(=O)c2ccc(-c3c[nH]c4cc(F)ccc34)cc21 (single isomer, unassigned; (+)) [Example 22, (+)-methyl ((5-(6-fluoro-1H-indol-3-yl)-1,1-dioxido-2,3-dihydrobenzo[d]isothiazol-3-yl)methyl)carbamate] | 647
19 | CC(=O)NCC1NS(=O)(=O)c2ccc(-c3c[nH]c4cc(F)ccc34)cc21 (single isomer, unassigned; (+)) [Example 24, (+)-N-((5-(6-fluoro-1H-indol-3-yl)-1,1-dioxido-2,3-dihydrobenzo[d]isothiazol-3-yl)methyl)acetamide] | 255
20 | CN(C)CC1NS(=O)(=O)c2ccc(-c3c[nH]c4cc(F)ccc34)cc21 (single isomer, unassigned; (+)) [Example 26, (+)-3-((dimethylamino)methyl)-5-(6-fluoro-1H-indol-3-yl)-2,3-dihydrobenzo[d]isothiazole 1,1-dioxide] | 437
21 | CC(=O)N(C)CC1NS(=O)(=O)c2ccc(-c3c[nH]c4cc(F)ccc34)cc21 (single isomer, unassigned; (+)) [Example 27, (+)-N-((5-(6-fluoro-1H-indol-3-yl)-1,1-dioxido-2,3-dihydrobenzo[d]isothiazol-3-yl)methyl)-N-methylacetamide] | 226
22 | O=S1(=O)NC(CCO)c2cc(-c3c[nH]c4cc(F)ccc34)ccc21 (single isomer, unassigned; (+)) [Example 30, (+)-5-(6-fluoro-1H-indol-3-yl)-3-(2-hydroxyethyl)-2,3-dihydrobenzo[d]isothiazole 1,1-dioxide] | 34
23 | C[S+]([O-])CCN1Cc2cc(-c3c[nH]c4cc(F)ccc34)ccc2S1(=O)=O (single isomer, unassigned; (+)) [Example 42, (+)-5-(6-fluoro-1H-indol-3-yl)-2-(2-(methylsulfinyl)ethyl)-2,3-dihydrobenzo[d]isothiazole 1,1-dioxide] | 142
24 | CNC(=O)CCN1C(C)c2cc(-c3c[nH]c4cc(F)ccc34)ccc2S1(=O)=O (single isomer, unassigned; (+)) [Example 45, (+)-3-(5-(6-fluoro-1H-indol-3-yl)-3-methyl-1,1-dioxidobenzo[d]-isothiazol-2(3H)-yl)-N-methylpropanamide] | 71
25 | CC1c2cc(-c3c[nH]c4cc(F)ccc34)ccc2S(=O)(=O)N1CCC(N)=O (single isomer, unassigned; (+)) [Example 47, (+)-3-(5-(6-fluoro-1H-indol-3-yl)-3-methyl-1,1-dioxidobenzo[d]isothiazol-2(3H)-yl)propanamide] | 199
26 | CC1c2cc(-c3c[nH]c4cc(F)ccc34)ccc2S(=O)(=O)N1CCC(=O)N1CCNCC1 (single isomer, unassigned; (+)) [Example 49, (+)-3-(5-(6-fluoro-1H-indol-3-yl)-3-methyl-1,1-dioxido-benzo [d]isothiazol-2(3H)-yl)-1-(piperazin-1-yl)propan-1-one] | 91
27 | CC1c2cc(-c3c[nH]c4cc(F)ccc34)ccc2S(=O)(=O)N1C1CCNCC1 (single isomer, unassigned; (+)) [Example 52, (+)-5-(6-fluoro-1H-indol-3-yl)-3-methyl-2-(piperidin-4-yl)-2,3-dihydrobenzo[d]isothiazole 1,1-dioxide] | 563
28 | CC1c2cc(-c3c[nH]c4cc(F)ccc34)ccc2S(=O)(=O)N1CCS(C)(=O)=O (single isomer, unassigned; (+)) [Example 53, (+)-5-(6-fluoro-1H-indol-3-yl)-3-methyl-2-(2-(methylsulfonyl)ethyl)-2,3-dihydrobenzo[d]isothiazole 1,1-dioxide] | 70
29 | CC1c2cc(-c3c[nH]c4cc(F)ccc34)ccc2S(=O)(=O)N1CC[S+](C)[O-] (single isomer, unassigned; (+)) [Example 55, (+)-5-(6-fluoro-1H-indol-3-yl)-3-methyl-2-(2-(methylsulfinyl)ethyl)-2,3-dihydrobenzo[d]isothiazole 1,1-dioxide] | 76
30 | CC1c2cc(-c3c[nH]c4cc(F)ccc34)ccc2S(=O)(=O)N1CC[S+](C)[O-] (single isomer, unassigned; (+)) [Example 58, (+)-5-(6-fluoro-1H-indol-3-yl)-3-methyl-2-(2-(methylsulfinyl)ethyl)-2,3-dihydrobenzo[d]isothiazole 1,1-dioxide] | 267
